According to paper PMC7551609 (Viruses, 2020):
“Also recorded” adds a separate entry of the source. Counter-ions that a name gives are not always drawn. Like-named read-outs stand apart in the source and are kept apart here.

What was measured:
ZIKV Paraiba/2015 [1] = experiment: Growth kinetics inhibition assay (infectious viral progeny), Vero cells; format: cell-based, Zika virus
[2] = MTT cell viability assay in Vero cells; format: cell-based, African green monkey; details: African green monkey, confluent monolayers; non-infected Vero cells, 36 h post-treatment
[3] = MTT cell viability in A549 cells; format: cell-based, human; details: human, highest concentration used 50.00 µM, sentence also cites [17]
ZIKV Paraiba/2015 [4] = experiment: Viral inhibition assay, post-treatment, human A549 cells; format: cell-based, Zika virus; details: for inhibitor category based on SI-MTT and SI-XTT: Paraiba/2015, A549 cells; for MIC: in Homo sapiens, read-out: A549 cells MIC (maximum effective concentration); for EC50: ZIKV Paraiba/2015, A549 cells, post-treatment, 36 h
ZIKV PRVABC59 strain = experiment: Viral inhibition assay, post-treatment, new World strain, Vero cells; format: cell-based, Zika virus; details: for EC50: new World ZIKV PRVABC59, Vero cells, post-treatment, 48 h; for MIC: read-out: PRVABC59 MIC (maximum effective concentration)
ZIKV Paraiba/2015 [5] = experiment: Viral inhibition assay, pre-treatment (prophylactic), Vero cells; format: cell-based, Zika virus; details: for MIC: read-out: Pre-treatment MIC (maximum effective concentration); for EC50: ZIKV Paraiba/2015, Vero cells, pre-treatment 12 h before infection
[6] = XTT cell proliferation assay in Vero cells; format: cell-based, African green monkey; details: African green monkey, confluent monolayers; non-infected Vero cells, 36 h post-treatment
ZIKV MR-766 strain = experiment: Viral inhibition assay, post-treatment, old World strain, Vero cells; format: cell-based, Zika virus; details: for EC50: old World ZIKV MR-766, Vero cells, post-treatment; for MIC: old World ZIKV MR-766 strain, read-out: MR766 MIC (maximum effective concentration)
ZIKV MR-766 [7] = details: ZIKV MR-766, Vero cells; cited from earlier work
ZIKV MR-766 [8] = details: ZIKV MR-766, Vero cells, pre-treatment conditions; cited from earlier work
[9] = XTT cell proliferation in A549 cells; format: cell-based, human; details: human, highest concentration used 50.00 µM, sentence also cites [17]
ZIKV Paraiba/2015 [10] = experiment: Viral inhibition assay, co-treatment, Vero cells; format: cell-based, Zika virus; details: for Co-treatment MIC (maximum effective concentration): Vero cells, ZIKV Paraiba/2015, co-treatment; for inhibitor category based on SI-MTT and SI-XTT / inhibitor category based on SI-MTT / inhibitor category based on SI-XTT: co-treatment, Paraiba/2015, Vero
ZIKV Paraiba/2015 [11] = experiment: Viral inhibition assay, post-infection treatment, Vero cells; format: cell-based, Zika virus; details: for EC50: ZIKV Paraiba/2015, Vero cells, post-infection treatment, 36 h; for MIC: read-out: Post-treatment MIC (maximum effective concentration)
ZIKV SL1602 strain = details: ZIKV SL1602, Vero cells; cited from earlier work
ZIKV MEX_I_7 strain = details: ZIKV MEX_I_7, Huh7, HeLa and HAEC cells; cited from earlier work
[12] = system: ZIKV cocktail of MR-766, FSS13025, and MEX-2-81 strains; details: JEG-3 and HBME cells; cited from earlier work
ZIKV PRVABC59 = details: ZIKV PRVABC59, Vero cells; cited from earlier work
ZIKV-MEX-2-81 = details: ZIKV MEX-2-81, U2OS cells; cited from earlier work
ZIKV DAKAR B11514 = system: ZIKV DAKAR B11514; design: method as in ref 32, 34 = [32]; details: ZIKV DAKAR B11514, Vero cells; cited from earlier work
ZIKV KX197192.1 strain = system: ZIKV KX197192.1 strain; design: method as in ref 32, 34 = [32]; details: Huh7 cells; cited from earlier work
Vero cells [13] = experiment: MTT cell viability assay in Vero cells; format: cell-based, African green monkey; details: non-infected Vero cells, 36 h post-treatment
A549 cells [14] = experiment: MTT cell viability in A549 cells; format: cell-based, human; details: highest concentration used 50.00 µM, sentence also cites [17]
Vero cells [15] = experiment: XTT cell proliferation assay in Vero cells; format: cell-based, African green monkey; details: non-infected Vero cells, 36 h post-treatment
A549 cells [16] = experiment: XTT cell proliferation in A549 cells; format: cell-based, human; details: highest concentration used 50.00 µM, sentence also cites [17]
ZIKV FB-GWUH-2016 = system: ZIKV FB-GWUH-2016; design: method as in ref 27 = [27]; details: ZIKV FB-GWUH-2016, RPE cells; cited from earlier work
[17] = system: ZIKV cocktail of MR-766, FSS13025, and MEX-2-81; details: JEG-3 cells, ZIKV cocktail of MR-766, FSS13025, MEX-2-81; cited from earlier work
[18] = 0.1, 1, 10 EC50, all time points (24, 48, 72 h post-treatment), MOI 0.1
[19] = Zika virus, new World ZIKV PRVABC59
[20] = pre-treatment, Paraiba/2015, Vero
[21] = post-treatment, Paraiba/2015, Vero

Compound | CC50 at 36 h [2] [µM] | CC50 [3] [µM] | inhibitor category based on SI-MTT and SI-XTT (ZIKV Paraiba/2015 [4]) | MIC (ZIKV Paraiba/2015 [4]; Zika virus) [µM] | EC50 (ZIKV Paraiba/2015 [4]; Zika virus) [µM] | inhibitor category based on SI-MTT and SI-XTT (ZIKV PRVABC59 strain; ZIKV PRVABC59, Vero) | EC50 (ZIKV PRVABC59 strain; Zika virus) [µM] | MIC (ZIKV PRVABC59 strain; [19]) [µM] | MIC (ZIKV Paraiba/2015 [5]; Zika virus) [µM] | EC50 (ZIKV Paraiba/2015 [5]; Zika virus) [µM] | inhibitor category based on SI-MTT (ZIKV Paraiba/2015 [5]; [20]) | inhibitor category based on SI-XTT (ZIKV Paraiba/2015 [5]; [20]) | CC50 at 36 h [6] [µM] | inhibitor category based on SI-MTT and SI-XTT (ZIKV MR-766 strain; ZIKV MR-766, Vero) | EC50 (ZIKV MR-766 strain; Zika virus) [µM] | MIC (ZIKV MR-766 strain; Zika virus) [µM] | CC50 [9] [µM] | Co-treatment MIC (maximum effective concentration) (ZIKV Paraiba/2015 [10]) [µM] | inhibitor category based on SI-MTT and SI-XTT (ZIKV Paraiba/2015 [10]) | inhibitor category based on SI-MTT and SI-XTT (ZIKV Paraiba/2015 [11]; [21]) | also measured
Cc1c(-c2ccc(-c3ccccc3F)cc2)nc2ccc(F)cc2c1C(=O)O [Brequinar, Brequinar sodium salt hydrate] | 238 | > 50 | Potent | < 0.04 | 0.02 | potent | 0.08 | < 0.41 | > 100 | 42.5 | moderate | weakest and weak | > 1350 | most potent; also recorded: potent | 0.05 | < 0.13 | > 50 | < 33.30 | moderate | most potent; also recorded: potent | effect on production of infectious viral progeny (viral titers) (ZIKV Paraiba/2015 [1]; [18]): dose-dependent inhibitory effect; effect on production of infectious viral progeny (viral titers) (ZIKV Paraiba/2015 [1]; 10 EC50, 24 and 48 h post-treatment): Complete inhibition; EC50 (ZIKV MR-766 [7]): 0.08 µM; EC50 (ZIKV MR-766 [8]): 0.3 µM; EC50 (ZIKV Paraiba/2015 [11]): 1.51 µM; EC50 (ZIKV Paraiba/2015 [11]; Zika virus, Vero): 1.03 µM; MIC (ZIKV Paraiba/2015 [11]; Zika virus): > 100 µM
COc1c(C)c2c(c(O)c1C/C=C(\C)CCC(=O)O)C(=O)OC2 [Mycophenolic acid] | 275 | > 50 | weak | < 11.1 | 0.65 | potent | 0.22 | < 1.23 | > 100 | 7.58 | Potent; also recorded: moderate | potent | > 1350 | most potent; also recorded: potent | 0.15 | < 1.23 | > 50 | < 11.10 | weak | moderate to weak | effect on production of infectious viral progeny (viral titers) (ZIKV Paraiba/2015 [1]; [18]): dose-dependent inhibitory effect; EC50 (ZIKV SL1602 strain): 0.42 µM; EC50 (ZIKV MEX_I_7 strain): < 2 µM; EC50 [12]: 0.1 µM; EC50 (ZIKV MR-766 [7]): 0.11 µM; EC50 (ZIKV PRVABC59): 0.14 µM; inhibitor category based on SI-MTT (ZIKV Paraiba/2015 [10]): weak; EC50 (ZIKV-MEX-2-81): 0.4 µM; EC50 (ZIKV Paraiba/2015 [11]): 4.26 µM; EC50 (ZIKV Paraiba/2015 [11]; Zika virus, Vero): 4.34 µM; MIC (ZIKV Paraiba/2015 [11]; Zika virus): > 100 µM
O=c1cnn([C@@H]2O[C@H](CO)[C@@H](O)[C@H]2O)c(=O)[nH]1 [Azauridine, 6-azauridine] | 156 | > 50 | moderate | < 1.23 | 0.44 | moderate | 1.46 | < 11.1 | > 100 | 64.5 | – | weakest | > 1350 | moderate | 0.76 | < 3.7 | > 50 | < 100.00 | weak | moderate to weak | effect on production of infectious viral progeny (viral titers) (ZIKV Paraiba/2015 [1]; [18]): dose-dependent inhibitory effect; EC50 (ZIKV DAKAR B11514): 1.5 µM; inhibitor category based on SI-MTT and SI-XTT (ZIKV Paraiba/2015 [5]; [20]): weak; EC50 (ZIKV MR-766 [7]): 0.98 µM; EC50 (ZIKV PRVABC59): 0.61 µM; inhibitor category based on SI-MTT (ZIKV Paraiba/2015 [10]): weak; EC50 (ZIKV KX197192.1 strain): 2.3 µM; EC50 (ZIKV Paraiba/2015 [11]): 4.29 µM; EC50 (ZIKV Paraiba/2015 [11]; Zika virus, Vero): 3.72 µM; MIC (ZIKV Paraiba/2015 [11]; Zika virus): > 100 µM
2′,3′,5′-Triacetyl-6-azauridine [Azaribine] | – | – | weak | – | – | moderate | – | – | – | – | moderate | weakest and weak | – | weak | – | – | – | > 100.00 | potent | most potent; also recorded: potent | effect on production of infectious viral progeny (viral titers) (ZIKV Paraiba/2015 [1]; 24 h post-treatment and at 10 EC50 at 48 and 72 h post-treatment): significant effect; CC50 (Vero cells [13]): 237 µM; CC50 (A549 cells [14]): > 50 µM; A549 cells MIC (maximum effective concentration) (ZIKV Paraiba/2015 [4]; A549 cells): < 11.10 µM; EC50 (ZIKV Paraiba/2015 [4]): 0.68 µM; PRVABC59 MIC (maximum effective concentration) (ZIKV PRVABC59 strain; new World ZIKV PRVABC59): < 11.10 µM; EC50 (ZIKV PRVABC59 strain): 1.12 µM; Pre-treatment MIC (maximum effective concentration) (ZIKV Paraiba/2015 [5]; Vero cells, ZIKV Paraiba/2015, pre-treatment): > 100.00 µM; EC50 (ZIKV Paraiba/2015 [5]): 47.3 µM; CC50 (Vero cells [15]): > 1350 µM; EC50 (ZIKV MR-766 strain): 2.43 µM; MIC (ZIKV MR-766 strain): < 11.10 µM; CC50 (A549 cells [16]): > 50 µM; EC50 (ZIKV Paraiba/2015 [10]; ZIKV Paraiba/2015, Vero cells, co-treatment (virus pre-incubated with compound 1 h), read-out: EC50): 2.59 µM; inhibitor category based on SI-MTT (ZIKV Paraiba/2015 [10]): Potent; inhibitor category based on SI-XTT (ZIKV Paraiba/2015 [10]): potent; Post-treatment MIC (maximum effective concentration) (ZIKV Paraiba/2015 [11]; Vero cells, ZIKV Paraiba/2015, post-treatment): > 100.00 µM; EC50 (ZIKV Paraiba/2015 [11]; read-out: EC50): 1.62 µM
COC1=CC(c2cc3ccccc3[nH]2)=N/C1=C\c1[nH]c(C)cc1C [Obatoclax, Obatoclax mesylate] | 17.6 | > 50 | weak | < 1.23 | 0.64 | – | 0.41 | < 1.23 | < 11.1 | 2.96 | moderate | – | 60.4 | – | 0.37 | < 1.23 | > 50 | < 3.70 | – | moderate to weak | effect on production of infectious viral progeny (viral titers) (ZIKV Paraiba/2015 [1]; 1 EC50, all the analyzed times, may be caused by toxicity): Complete inhibition; inhibitor category based on SI-MTT (ZIKV PRVABC59 strain; ZIKV PRVABC59, Vero): weak; inhibitor category based on SI-XTT (ZIKV PRVABC59 strain; ZIKV PRVABC59, Vero): potent; inhibitor category based on SI-MTT (ZIKV MR-766 strain; ZIKV MR-766, Vero): weak; inhibitor category based on SI-XTT (ZIKV MR-766 strain; ZIKV MR-766, Vero): moderate; EC50 (ZIKV FB-GWUH-2016): 0.04 µM; inhibitor category based on SI-MTT (ZIKV Paraiba/2015 [10]): Potent; inhibitor category based on SI-XTT (ZIKV Paraiba/2015 [10]): potent; inhibitory activity [17]: did not exhibit inhibitory activity; EC50 (ZIKV Paraiba/2015 [11]): 0.63 µM; EC50 (ZIKV Paraiba/2015 [11]; Zika virus, Vero): 0.58 µM; MIC (ZIKV Paraiba/2015 [11]; Zika virus): < 0.01 µM; inhibitor category based on SI-MTT (ZIKV Paraiba/2015 [11]; [21]): weak; inhibitor category based on SI-XTT (ZIKV Paraiba/2015 [11]; [21]): potent
